Converted amounts (≈) assume the structure as drawn.
Test system: Escherichia coli
Assay: Antibacterial activity against Escherichia coli assessed as zone of inhibition at 500 to 1000 ug per disc
Format: functional
Settings: dose 500-1000 µg

| SMILES | diameter of the inhibition zone (DIZ) [mm] |
| --- | --- |
| CCn1c(=O)c(C(=O)/C=C/c2cccs2)c(O)c2ccccc21 | 7 |
| Cn1c(=O)c(C(=O)/C=C/c2ccco2)c(O)c2ccccc21 | 7 |
| O=c1[nH]c2ccc(F)cc2c2c1cnn2Cc1ccccc1 | 7 |
| CCn1c(=O)c(C(=O)/C=C/c2ccsc2)c(O)c2ccccc21 | 7 |
| Cc1ccc2[nH]c(=O)c3cnn(Cc4ccccc4)c3c2c1 | 7 |
| O=c1[nH]c2ccccc2c2c1cnn2Cc1ccccc1 | 7 |
| O=c1[nH]c2ccc(Cl)cc2c2c1cnn2Cc1ccccc1 | 7 |
| COc1ccc2[nH]c(=O)c3cnn(Cc4ccccc4)c3c2c1 | 7 |

Test system: Escherichia coli
Assay: Antibacterial activity against Escherichia coli KC-14 infected in po dosed mouse assessed as bacterial growth inhibition
Format: functional
Settings: Escherichia coli, KC-14, po, read-out: ED50

| SMILES | ED50 [mg/kg] |
| --- | --- |
| CCOC(=O)c1c2n(c3cc(N4CCN(C(C)=O)CC4)c(F)cc3c1=O)C(C)S2 (centres undefined) | 0.89 |

Same assay, conditions: Escherichia coli, KC-14, read-out: ED50

| SMILES | ED50 [mg/kg] |
| --- | --- |
| CCOC(=O)c1c2n(c3cc(N4CCNCC4)c(F)cc3c1=O)C(C)S2 (centres undefined) | 0.78 |

Test system: Escherichia coli
Assay: Antibacterial activity against Escherichia coli assessed as bacterial growth inhibition incubated for 16 to 24 hrs by absorbance analysis
Format: functional
Settings: time 16-24 hrs

| SMILES | MIC [µg/mL] |
| --- | --- |
| Cc1[nH]c2ccc([N+](=O)[O-])cc2c(=O)c1CC(=O)O | 8.97 (≈ 34.2 µM) |
| Cc1[nH]c2ccccc2c(=O)c1CC(=O)O | 8.97 (≈ 41.3 µM) |
| Cc1[nH]c2c(C)cc([N+](=O)[O-])cc2c(=O)c1CC(=O)O | 8.97 (≈ 32.5 µM) |
| Cc1ccc2[nH]c(C)c(CC(=O)O)c(=O)c2c1 | 8.97 (≈ 38.8 µM) |
| Cc1[nH]c2cc3ccccc3cc2c(=O)c1CC(=O)O | 8.97 (≈ 33.6 µM) |
| Cc1[nH]c2ccc(Cl)cc2c(=O)c1CC(=O)O | 8.97 (≈ 35.6 µM) |
| Cc1[nH]c2ccc(Br)cc2c(=O)c1CC(=O)O | 8.97 (≈ 30.3 µM) |

Test system: Escherichia coli
Assay: Antibacterial activity against Escherichia coli NIHJ JC-2 assessed as bacterial growth inhibition measured after 24 hrs by agar dilution method
Format: functional
Settings: not given

| SMILES | MIC [µg/mL] |
| --- | --- |
| CNC1(C)CN(c2c(F)cc3c(=O)c(C(=O)O)cn(-c4cc(N)c(F)cc4CO)c3c2Cl)C1 | 0.008 (≈ 0.0167 µM) |
| CCNC1CN(c2c(F)cc3c(=O)c(C(=O)O)cn(-c4cc(N)c(F)cc4CO)c3c2Cl)C1 | 0.008 (≈ 0.0167 µM) |
| CC1(N)CN(c2c(F)cc3c(=O)c(C(=O)O)cn(-c4cc(N)c(F)cc4CO)c3c2Cl)C1 | 0.008 (≈ 0.0172 µM) |
| CNC1CN(c2c(F)c(N)c3c(=O)c(C(=O)O)cn(-c4cc(N)c(F)cc4CO)c3c2Cl)C1 | 0.008 (≈ 0.0167 µM) |
| CNC1CN(c2c(F)cc3c(=O)c(C(=O)O)cn(-c4cc(N)c(F)cc4CO)c3c2Cl)C1 | 0.008 (≈ 0.0172 µM) |
| Nc1cc(-n2cc(C(=O)O)c(=O)c3cc(F)c(N4CC(O)C4)c(Cl)c32)c(CO)cc1F | 0.008 (≈ 0.0177 µM) |
| Nc1cc(-n2cc(C(=O)O)c(=O)c3cc(F)c(N4CC(N)C4)c(Cl)c32)c(CO)cc1F | 0.008 (≈ 0.0177 µM) |
| CNC1CN(c2c(F)c(C)c3c(=O)c(C(=O)O)cn(-c4cc(N)c(F)cc4CO)c3c2Cl)C1 | 0.008 (≈ 0.0167 µM) |

Test system: Escherichia coli
Assay: Antibacterial activity against Escherichia coli NIHJ assessed as bacterial growth inhibition measured after 24 hrs by agar dilution method
Format: functional
Settings: not given

| SMILES | MIC [µg/mL] |
| --- | --- |
| CNC1(C)CN(c2c(F)cc3c(=O)c(C(=O)O)cn(-c4cc(N)c(F)cc4CO)c3c2Cl)C1 | 0.008 (≈ 0.0167 µM) |
| CCNC1CN(c2c(F)cc3c(=O)c(C(=O)O)cn(-c4cc(N)c(F)cc4CO)c3c2Cl)C1 | 0.008 (≈ 0.0167 µM) |
| CC1(N)CN(c2c(F)cc3c(=O)c(C(=O)O)cn(-c4cc(N)c(F)cc4CO)c3c2Cl)C1 | 0.008 (≈ 0.0172 µM) |
| CNC1CN(c2c(F)c(N)c3c(=O)c(C(=O)O)cn(-c4cc(N)c(F)cc4CO)c3c2Cl)C1 | 0.008 (≈ 0.0167 µM) |
| CNC1CN(c2c(F)cc3c(=O)c(C(=O)O)cn(-c4cc(N)c(F)cc4CO)c3c2Cl)C1 | 0.008 (≈ 0.0172 µM) |
| Nc1cc(-n2cc(C(=O)O)c(=O)c3cc(F)c(N4CC(O)C4)c(Cl)c32)c(CO)cc1F | 0.008 (≈ 0.0177 µM) |
| Nc1cc(-n2cc(C(=O)O)c(=O)c3cc(F)c(N4CC(N)C4)c(Cl)c32)c(CO)cc1F | 0.008 (≈ 0.0177 µM) |
| CNC1CN(c2c(F)c(C)c3c(=O)c(C(=O)O)cn(-c4cc(N)c(F)cc4CO)c3c2Cl)C1 | 0.008 (≈ 0.0167 µM) |

Test system: Escherichia coli
Assay: Antibacterial activity against Escherichia coli 2010-05 assessed as bacterial growth inhibition measured after 24 hrs by agar dilution method
Format: functional
Settings: not given

| SMILES | MIC [µg/mL] |
| --- | --- |
| CNC1(C)CN(c2c(F)cc3c(=O)c(C(=O)O)cn(-c4cc(N)c(F)cc4CO)c3c2Cl)C1 | 1 (≈ 2.09 µM) |
| CCNC1CN(c2c(F)cc3c(=O)c(C(=O)O)cn(-c4cc(N)c(F)cc4CO)c3c2Cl)C1 | 1 (≈ 2.09 µM) |
| CC1(N)CN(c2c(F)cc3c(=O)c(C(=O)O)cn(-c4cc(N)c(F)cc4CO)c3c2Cl)C1 | 1 (≈ 2.15 µM) |
| CNC1CN(c2c(F)c(N)c3c(=O)c(C(=O)O)cn(-c4cc(N)c(F)cc4CO)c3c2Cl)C1 | 1 (≈ 2.08 µM) |
| CNC1CN(c2c(F)cc3c(=O)c(C(=O)O)cn(-c4cc(N)c(F)cc4CO)c3c2Cl)C1 | 2 (≈ 4.3 µM) |
| Nc1cc(-n2cc(C(=O)O)c(=O)c3cc(F)c(N4CC(O)C4)c(Cl)c32)c(CO)cc1F | 1 (≈ 2.21 µM) |
| Nc1cc(-n2cc(C(=O)O)c(=O)c3cc(F)c(N4CC(N)C4)c(Cl)c32)c(CO)cc1F | 1 (≈ 2.22 µM) |
| CNC1CN(c2c(F)c(C)c3c(=O)c(C(=O)O)cn(-c4cc(N)c(F)cc4CO)c3c2Cl)C1 | 1 (≈ 2.09 µM) |

Test system: Escherichia coli
Assay: Antibacterial activity against Escherichia coli 2010-29 assessed as bacterial growth inhibition measured after 24 hrs by agar dilution method
Format: functional
Settings: not given

| SMILES | MIC [µg/mL] |
| --- | --- |
| CNC1(C)CN(c2c(F)cc3c(=O)c(C(=O)O)cn(-c4cc(N)c(F)cc4CO)c3c2Cl)C1 | 1 (≈ 2.09 µM) |
| CCNC1CN(c2c(F)cc3c(=O)c(C(=O)O)cn(-c4cc(N)c(F)cc4CO)c3c2Cl)C1 | 1 (≈ 2.09 µM) |
| CC1(N)CN(c2c(F)cc3c(=O)c(C(=O)O)cn(-c4cc(N)c(F)cc4CO)c3c2Cl)C1 | 1 (≈ 2.15 µM) |
| CNC1CN(c2c(F)c(N)c3c(=O)c(C(=O)O)cn(-c4cc(N)c(F)cc4CO)c3c2Cl)C1 | 1 (≈ 2.08 µM) |
| CNC1CN(c2c(F)cc3c(=O)c(C(=O)O)cn(-c4cc(N)c(F)cc4CO)c3c2Cl)C1 | 2 (≈ 4.3 µM) |
| Nc1cc(-n2cc(C(=O)O)c(=O)c3cc(F)c(N4CC(O)C4)c(Cl)c32)c(CO)cc1F | 1 (≈ 2.21 µM) |
| Nc1cc(-n2cc(C(=O)O)c(=O)c3cc(F)c(N4CC(N)C4)c(Cl)c32)c(CO)cc1F | 1 (≈ 2.22 µM) |
| CNC1CN(c2c(F)c(C)c3c(=O)c(C(=O)O)cn(-c4cc(N)c(F)cc4CO)c3c2Cl)C1 | 1 (≈ 2.09 µM) |

Test system: Escherichia coli
Assay: Antibacterial activity against Escherichia coli ATCC 8739 assessed as bacterial growth inhibition incubated for 24 hrs by two-serial dilution method
Format: functional
Settings: not given

| SMILES | MIC [µg/mL] |
| --- | --- |
| O=C(O)c1cn(C2CC2)c2c(cc(F)c3nc(-c4ccc(F)cc4)[nH]c32)c1=O | > 3 |
| O=C(O)c1cn(C2CC2)c2c(cc(F)c3nc(-c4ccncc4)[nH]c32)c1=O | > 3 |
| O=C(O)c1cn(C2CC2)c2c(cc(F)c3nc(-c4ccsc4)[nH]c32)c1=O | > 3 |
| O=C(O)c1cn(C2CC2)c2c(cc(F)c3nc(-c4ccoc4)[nH]c32)c1=O | > 3 |
| O=C(O)c1cn(C2CC2)c2c(cc(F)c3nc[nH]c32)c1=O | > 3 |
| O=C(O)c1cn(C2CC2)c2c(cc(F)c3nc(-c4ccccn4)[nH]c32)c1=O | > 3 |
| O=C(O)c1cn(C2CC2)c2c(cc(F)c3nc(-c4ccccc4)[nH]c32)c1=O | > 3 |
| O=C(O)c1cn(C2CC2)c2c(cc(F)c3nc(-c4ccco4)[nH]c32)c1=O | > 3 |
| O=C(O)c1cn(C2CC2)c2c(cc(F)c3nc(-c4cccs4)[nH]c32)c1=O | > 3 |
| O=C(O)c1cn(C2CC2)c2c(cc(F)c3nc(-c4ccc(Cl)cc4)[nH]c32)c1=O | > 3 |

— ChEMBL document CHEMBL5244219, “Recent developments of quinolone-based derivatives and their activities against Escherichia coli” (Eur J Med Chem, 2018)
